What was measured:
[1] = biological target: Platelet-derived growth factor receptor beta (Homo sapiens, UniProt P09619); experiment: Inhibition of PDGFRbeta in human SF539 cells assessed as inhibition of […] tyrosine phosphorylation incubated for 60 mins prior to PDGF-BB-activation measured 10 mins by ELISA
[2] = biological target: T1, Epidermal growth factor receptor (Homo sapiens, UniProt P00533); experiment: Ratio of sunitinib IC50 to compound IC50 for EGFR in human A431 cells; type: cell-based; settings: A-431
T1 sequence (P00533 whole entry): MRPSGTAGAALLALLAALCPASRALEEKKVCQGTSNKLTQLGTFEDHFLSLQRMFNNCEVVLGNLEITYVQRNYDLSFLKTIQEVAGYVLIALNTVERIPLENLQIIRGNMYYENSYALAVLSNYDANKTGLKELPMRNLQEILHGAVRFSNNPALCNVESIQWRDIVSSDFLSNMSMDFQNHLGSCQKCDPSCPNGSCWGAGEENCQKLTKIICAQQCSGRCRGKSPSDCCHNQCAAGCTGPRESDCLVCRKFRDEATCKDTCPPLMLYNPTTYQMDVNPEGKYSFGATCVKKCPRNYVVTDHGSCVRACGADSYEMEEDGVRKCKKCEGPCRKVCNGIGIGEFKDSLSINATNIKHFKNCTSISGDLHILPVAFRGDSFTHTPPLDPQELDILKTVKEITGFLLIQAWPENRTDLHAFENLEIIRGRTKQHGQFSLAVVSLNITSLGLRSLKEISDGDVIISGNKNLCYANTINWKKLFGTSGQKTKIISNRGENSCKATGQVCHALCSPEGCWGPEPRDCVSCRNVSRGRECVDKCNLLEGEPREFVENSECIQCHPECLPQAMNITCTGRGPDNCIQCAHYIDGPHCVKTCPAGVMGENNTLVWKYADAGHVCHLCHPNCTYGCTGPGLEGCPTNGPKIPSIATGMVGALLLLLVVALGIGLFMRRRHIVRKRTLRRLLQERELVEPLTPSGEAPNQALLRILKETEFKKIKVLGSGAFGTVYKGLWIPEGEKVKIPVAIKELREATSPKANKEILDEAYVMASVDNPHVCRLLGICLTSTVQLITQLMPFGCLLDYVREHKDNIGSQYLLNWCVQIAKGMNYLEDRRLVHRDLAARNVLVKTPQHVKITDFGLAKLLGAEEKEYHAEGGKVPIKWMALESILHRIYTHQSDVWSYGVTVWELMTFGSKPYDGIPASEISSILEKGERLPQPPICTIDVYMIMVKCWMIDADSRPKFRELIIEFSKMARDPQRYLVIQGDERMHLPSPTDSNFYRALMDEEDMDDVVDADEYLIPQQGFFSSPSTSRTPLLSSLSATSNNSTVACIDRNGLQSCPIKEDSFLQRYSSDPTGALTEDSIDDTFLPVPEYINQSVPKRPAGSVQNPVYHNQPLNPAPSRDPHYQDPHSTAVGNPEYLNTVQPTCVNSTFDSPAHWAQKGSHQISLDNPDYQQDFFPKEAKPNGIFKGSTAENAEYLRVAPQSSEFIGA

[3] = biological target: Vascular endothelial growth factor receptor 2 (Homo sapiens, UniProt P35968); type: cell-based, U-251;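 note: human U251 cells, compound preincubated 60 min before VEGF stimulation, VEGF-induced VEGFR2 tyrosine phosphorylation measured by ELISA after 10 min, value is concentration inhibiting this phosphorylation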
Vascular endothelial growth factor receptor 2, sequence (P35968 whole entry): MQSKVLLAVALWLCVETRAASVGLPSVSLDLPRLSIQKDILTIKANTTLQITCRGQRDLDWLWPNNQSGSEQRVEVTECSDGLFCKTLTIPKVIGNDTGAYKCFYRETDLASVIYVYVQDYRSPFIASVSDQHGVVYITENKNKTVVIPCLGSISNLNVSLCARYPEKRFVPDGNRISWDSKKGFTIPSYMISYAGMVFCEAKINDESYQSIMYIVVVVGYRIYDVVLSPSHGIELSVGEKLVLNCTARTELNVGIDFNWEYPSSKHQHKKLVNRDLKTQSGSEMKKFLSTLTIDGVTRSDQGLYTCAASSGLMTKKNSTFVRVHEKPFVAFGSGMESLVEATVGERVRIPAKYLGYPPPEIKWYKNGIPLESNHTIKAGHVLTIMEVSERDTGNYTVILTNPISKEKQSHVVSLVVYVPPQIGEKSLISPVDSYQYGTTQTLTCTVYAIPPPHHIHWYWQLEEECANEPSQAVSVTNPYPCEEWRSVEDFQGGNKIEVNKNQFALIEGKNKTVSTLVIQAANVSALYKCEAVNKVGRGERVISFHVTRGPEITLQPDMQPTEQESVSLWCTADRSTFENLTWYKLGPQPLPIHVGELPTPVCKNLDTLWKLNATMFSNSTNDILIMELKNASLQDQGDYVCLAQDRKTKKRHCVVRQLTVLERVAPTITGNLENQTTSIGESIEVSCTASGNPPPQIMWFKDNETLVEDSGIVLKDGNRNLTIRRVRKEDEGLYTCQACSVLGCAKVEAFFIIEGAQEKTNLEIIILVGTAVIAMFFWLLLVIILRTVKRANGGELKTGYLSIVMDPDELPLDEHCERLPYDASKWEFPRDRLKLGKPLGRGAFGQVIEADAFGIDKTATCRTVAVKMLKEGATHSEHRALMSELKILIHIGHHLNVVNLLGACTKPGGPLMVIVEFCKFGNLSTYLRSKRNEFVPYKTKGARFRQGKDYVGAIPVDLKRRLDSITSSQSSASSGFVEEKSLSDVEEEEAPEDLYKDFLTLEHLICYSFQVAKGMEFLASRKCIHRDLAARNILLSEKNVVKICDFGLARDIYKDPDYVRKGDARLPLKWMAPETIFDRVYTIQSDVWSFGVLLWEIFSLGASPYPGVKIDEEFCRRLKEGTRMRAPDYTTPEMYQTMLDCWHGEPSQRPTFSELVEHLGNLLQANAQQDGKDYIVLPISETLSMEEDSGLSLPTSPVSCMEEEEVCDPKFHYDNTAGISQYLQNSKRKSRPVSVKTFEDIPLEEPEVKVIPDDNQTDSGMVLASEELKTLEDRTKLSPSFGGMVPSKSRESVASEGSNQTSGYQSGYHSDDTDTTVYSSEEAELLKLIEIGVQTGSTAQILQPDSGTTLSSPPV

[4] = biological target: T1, Epidermal growth factor receptor; type: cell-based, A-431
A-431 = experiment: Cytotoxicity against human A431 cells incubated for 12 hrs followed by compound wash out measured 36 hrs by CYQUANT assay; type: functional, cell-based

Platelet-derived growth factor receptor beta, sequence (P09619 whole entry): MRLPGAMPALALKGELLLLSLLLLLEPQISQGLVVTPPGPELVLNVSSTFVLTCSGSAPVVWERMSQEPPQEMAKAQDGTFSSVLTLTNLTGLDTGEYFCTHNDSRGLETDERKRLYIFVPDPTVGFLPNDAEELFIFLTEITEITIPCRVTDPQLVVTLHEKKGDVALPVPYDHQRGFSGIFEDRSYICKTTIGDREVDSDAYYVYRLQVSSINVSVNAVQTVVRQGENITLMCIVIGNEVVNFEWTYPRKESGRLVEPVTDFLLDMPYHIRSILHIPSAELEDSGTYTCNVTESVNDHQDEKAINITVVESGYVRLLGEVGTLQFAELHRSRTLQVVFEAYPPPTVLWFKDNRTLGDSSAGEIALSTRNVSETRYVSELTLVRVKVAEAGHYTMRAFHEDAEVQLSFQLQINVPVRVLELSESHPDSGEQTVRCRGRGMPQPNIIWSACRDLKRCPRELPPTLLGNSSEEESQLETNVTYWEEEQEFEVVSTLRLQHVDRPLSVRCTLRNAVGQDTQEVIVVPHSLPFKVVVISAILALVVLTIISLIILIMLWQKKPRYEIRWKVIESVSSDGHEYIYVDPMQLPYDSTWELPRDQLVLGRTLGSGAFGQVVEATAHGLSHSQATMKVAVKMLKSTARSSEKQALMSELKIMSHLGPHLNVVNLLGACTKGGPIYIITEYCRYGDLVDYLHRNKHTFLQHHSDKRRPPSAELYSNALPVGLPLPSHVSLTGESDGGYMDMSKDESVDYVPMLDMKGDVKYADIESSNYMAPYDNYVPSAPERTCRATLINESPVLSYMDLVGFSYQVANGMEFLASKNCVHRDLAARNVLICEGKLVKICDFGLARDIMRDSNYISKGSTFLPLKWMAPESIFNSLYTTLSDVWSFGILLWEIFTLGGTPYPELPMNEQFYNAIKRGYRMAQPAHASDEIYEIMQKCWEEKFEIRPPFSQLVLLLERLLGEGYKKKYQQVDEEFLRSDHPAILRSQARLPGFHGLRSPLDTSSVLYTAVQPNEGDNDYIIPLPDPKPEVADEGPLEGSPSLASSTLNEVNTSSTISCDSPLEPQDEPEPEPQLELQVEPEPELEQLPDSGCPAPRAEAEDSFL

IC50 [1] [µM]	Ratio IC50 [2]	IC50 [3] [µM]	IC50 [4] [µM]	Compound	IC50 (A-431) [µM]
50.5	2.1	70.1	82.9	COc1cccc(Nc2nc(N)nc3[nH]c4cccc(Cl)c4c23)c1	
196		41	130	COc1cccc(Nc2nc(NC(=O)C(C)(C)C)nc3[nH]c4cccc(Cl)c4c23)c1	> 250
196		13.2	63.6	Nc1nc(Nc2ccc(Cl)cc2)c2c(n1)[nH]c1cccc(Cl)c12	
> 200		124	> 200	Nc1nc(Nc2ccccc2)c2c(n1)[nH]c1cccc(Cl)c12	193
> 200		30.3		CC(C)c1ccc(Nc2nc(N)nc3[nH]c4cccc(Cl)c4c23)cc1	
172		86.1	> 200	Nc1nc(Nc2cccc(F)c2)c2c(n1)[nH]c1cccc(Cl)c12	
> 200		21.3	58.7	CC(C)(C)C(=O)Nc1nc(Nc2ccc(Cl)cc2)c2c(n1)[nH]c1cccc(Cl)c12	

Further lines, the compound ahead of its results:

Compound	IC50 [1] [µM]	Ratio IC50 [2]	IC50 [3] [µM]	IC50 [4] [µM]	IC50 (A-431) [µM]
CC(C)(C)C(=O)Nc1nc(Nc2ccccc2)c2c(n1)[nH]c1cccc(Cl)c12	70.6		192	115	
Nc1nc(Nc2ccc(Cl)cc2F)c2c(n1)[nH]c1cccc(Cl)c12	> 200				
CC(C)(C)C(=O)Nc1nc(Nc2cccc(F)c2)c2c(n1)[nH]c1cccc(Cl)c12	> 200	5.5	31.2	30.8	> 250
CC(C)c1ccc(Nc2nc(NC(=O)C(C)(C)C)nc3[nH]c4cccc(Cl)c4c23)cc1	> 200		47.8	39.2	> 250
CC(C)(C)C(=O)Nc1nc(Nc2ccc(Cl)cc2F)c2c(n1)[nH]c1cccc(Cl)c12	171		89.1	> 200	> 250
